Reference: the NIST ThermoML archive (doi:10.1021/je300958c)

Experiment: relative permittivity at zero frequency (dimensionless)
Conditions: 101.33 kPa, Liquid, impedance/gain phase analyzer

N#CCCC#N [butanedinitrile]
Conditions | relative permittivity at zero frequency
333.15 K | 56.09
335.65 K | 55.46
338.15 K | 54.85
340.65 K | 54.29
343.15 K | 53.68
345.65 K | 53.11
348.15 K | 52.52
350.65 K | 51.95
353.15 K | 51.36
355.65 K | 50.81
358.15 K | 50.28
360.65 K | 49.73
363.15 K | 49.18
365.65 K | 48.66
368.15 K | 48.14
370.65 K | 47.63
373.15 K | 47.11

N#CCCCCCC#N [heptanedinitrile]
Conditions | relative permittivity at zero frequency
248.15 K | 36.21
250.65 K | 35.82
253.15 K | 35.44
255.65 K | 35.06
258.15 K | 34.7
260.65 K | 34.35
263.15 K | 33.99
265.65 K | 33.65
268.15 K | 33.31
270.65 K | 32.98
273.15 K | 32.66
275.65 K | 32.36
278.15 K | 32.04
280.65 K | 31.73
283.15 K | 31.43
285.65 K | 31.14
288.15 K | 30.86
290.65 K | 30.57
293.15 K | 30.28
295.65 K | 30
298.15 K | 29.71
300.65 K | 29.45
303.15 K | 29.18
305.65 K | 28.92
308.15 K | 28.67
310.65 K | 28.42
313.15 K | 28.17
315.65 K | 27.94
318.15 K | 27.68
320.65 K | 27.46
323.15 K | 27.23
325.65 K | 27
328.15 K | 26.77
330.65 K | 26.56
333.15 K | 26.32

N#CCCCCC#N [hexanedinitrile]
Conditions | relative permittivity at zero frequency
278.15 K | 34.7
280.65 K | 34.35
283.15 K | 34.01
285.65 K | 33.67
288.15 K | 33.36
290.65 K | 33.04
293.15 K | 32.73
295.65 K | 32.41
298.15 K | 32.12
300.65 K | 31.83
303.15 K | 31.53
305.65 K | 31.26
308.15 K | 30.96
310.65 K | 30.67
313.15 K | 30.38
315.65 K | 30.09
318.15 K | 29.8
320.65 K | 29.5
323.15 K | 29.22
325.65 K | 28.94
328.15 K | 28.69
330.65 K | 28.46
333.15 K | 28.21
335.65 K | 27.98
338.15 K | 27.73
340.65 K | 27.52
343.15 K | 27.3
345.65 K | 27.09
348.15 K | 26.83
350.65 K | 26.6
353.15 K | 26.4

N#CCCCCCCC#N [octanedinitrile]
Conditions | relative permittivity at zero frequency
273.15 K | 28.23
275.65 K | 28
278.15 K | 27.77
280.65 K | 27.52
283.15 K | 27.29
285.65 K | 27.06
288.15 K | 26.82
290.65 K | 26.6
293.15 K | 26.36
295.65 K | 26.16
298.15 K | 25.94
300.65 K | 25.75
303.15 K | 25.55
305.65 K | 25.32
308.15 K | 25.11
310.65 K | 24.94
313.15 K | 24.74
315.65 K | 24.55
318.15 K | 24.37
320.65 K | 24.2
323.15 K | 24
325.65 K | 23.8
328.15 K | 23.63
330.65 K | 23.47
333.15 K | 23.3

N#CCCCC#N [pentanedinitrile]
Conditions | relative permittivity at zero frequency
248.15 K | 40.78
250.65 K | 40.45
253.15 K | 40.08
255.65 K | 39.78
258.15 K | 39.42
260.65 K | 39.08
263.15 K | 38.74
265.65 K | 38.4
268.15 K | 38.1
270.65 K | 37.78
273.15 K | 37.44
275.65 K | 37.16
278.15 K | 36.83
280.65 K | 36.56
283.15 K | 36.27
285.65 K | 35.97
288.15 K | 35.71
290.65 K | 35.41
293.15 K | 35.14
295.65 K | 34.87
298.15 K | 34.6
300.65 K | 34.33
303.15 K | 34.04
305.65 K | 33.83
308.15 K | 33.59
310.65 K | 33.35
313.15 K | 33.13
315.65 K | 32.87
318.15 K | 32.67
320.65 K | 32.44
323.15 K | 32.21
